Measurements reported in PMC7349657, “Efficient Targeted Degradation via Reversible and Irreversible Covalent PROTACs” (Journal of the American Chemical Society, 2020).

Target: T1, BTK C481S (Homo sapiens, UniProt Q06187, C481S)
T1 construct: Human wild type BTK full length was obtained from the ORFeome; expressed in transfected cells; host or cells: U2OS (ATCC HTB-96), pCDNA3.1, CMV promoter
Assay: Degradation of overexpressed BTK C481S in transfected U2OS cells
Type: cell-based
Settings: overexpressed WT vs C481S BTK, 100 nM, 24 h
Experimental: Figure 5 Degradation of overexpressed BTK and BTK C481S in U2OS cells. (A) Transfected U2OS cells were treated with 100 nM PROTAC for 24 h, followed by measuring BTK levels via Western blot. (B) Quantification of normalized BTK levels in (A). TEXT PRINTED IN THE PICTURE: (A) IR-1: BTK % control: 43 (Transfection: BTK-WT; PROTAC 24h [0.1 μM]); BTK % control: 67 (Transfection: BTK-C481S; PROTAC 24h [0.1 μM]) | (A) RC-2: BTK % control: 58 (Transfection: BTK-WT; PROTAC 24h [0.1 μM]); BTK % control: 73 (Transfection: BTK-C481S; PROTAC 24h [0.1 μM]) | (A) IR-2: BTK % control: 41 (Transfection: BTK-WT; PROTAC 24h [0.1 μM]); BTK % control: 62 (Transfection: BTK-C481S; PROTAC 24h [0.1 μM]) | (A) NC-1: BTK % control: 27 (Transfection: BTK-WT; PROTAC 24h [0.1 μM]); BTK % control: 49 (Transfection: BTK-C481S; PROTAC 24h [0.1 μM]) | (A) RC-3: BTK % control: 27 (Transfection: BTK-WT; PROTAC 24h [0.1 μM]); BTK % control: 104 (Transfection: BTK-C481S; PROTAC 24h [0.1 μM]) DOUBTS OF THE COPYIST ABOUT THIS PICTURE: The % control numbers are printed under a Western blot. They are given here as printed results for each compound. The vehicle and untransfected lanes (DMSO 100 and 100, Un 1 and 0) were left out as controls. / Panel B prints no numbers for its bars, so nothing was taken from it.
Ramos (ATCC, CRL-1596), Mino (ATCC, CRL-3000), or K562 (NCI-60) cell lines were counted and diluted to 10^6 cell/mL, using 1 mL per well in a 24-well plate, and U2OS (ATCC HTB-96) cells overexpressing human BTK WT or C481S mutant were grown using 2 mL in a six-well plate (see Supporting Information). Cells were incubated with 1% DMSO or compound in indicated concentrations for 24 h unless indicated differently, or cells were left untreated. Lysates were prepared as previously described,[29] and samples were measured for total protein quantification by bicinchoninic acid (BCA) assay (#23225 ThermoFisher Scientific) supplemented with 4× loading buffer including 20 mM DTT, heated to 70 °C for 10 min, loaded into 4% SDS-PAGE gel, run for 45 min at 140 mV, then transferred into a nitrocellulose membrane (Biorad) using a Trans-Blot Turbo transfer system (Biorad). The membrane was stained with Ponceau (Sigma) to validate transfer for 10 min in gentle agitation then destained for 1 h with MQ water. The membrane was blocked with Licor blocking buffer (LIC927-70001) for 1 h, washed three times for 5 min with TBS-T, incubated with primary antibody BTK (D3H5) rabbit mAb (CST; 8547 S) overnight (16 h) at 4 °C, washed three times for 5 min with TBS-T, and incubated with primary antibody against β-actin (CST; 3700) for 1 h at 25 °C. Membrane was washed three times for 5 min with TBS-T, incubated with fluorescent secondary antibodies anti-mouse IgG Alexa Fluor 647 (CST: 4410S) and anti-rabbit-IgG IRDye 800(LICOR: 926-32211) for 1 h, then washed three times for 5 min with TBS-T, dried, and immediately imaged and analyzed using Licor Odyssey CLx. Prism (GraphPad) software was used to calculate degradation levels. We used second-order polynomial fits to estimate DC50 and Dmax values.
Cloning and Over Expression of BTK
Human wild type BTK full length was obtained from the ORFeome (ref: http://www.orfeomecollaboration.org/), from which the full human BTK gene (clone HsCD00433457) was inserted into the mammalian expression vector pCDNA3.1. In parallel, a mutant BTK C481S was constructed by assemble 2 PCR products harboring the desired mutation and cloned into pCDNA3.1. […]

T1 sequence (Q06187 whole entry C481S): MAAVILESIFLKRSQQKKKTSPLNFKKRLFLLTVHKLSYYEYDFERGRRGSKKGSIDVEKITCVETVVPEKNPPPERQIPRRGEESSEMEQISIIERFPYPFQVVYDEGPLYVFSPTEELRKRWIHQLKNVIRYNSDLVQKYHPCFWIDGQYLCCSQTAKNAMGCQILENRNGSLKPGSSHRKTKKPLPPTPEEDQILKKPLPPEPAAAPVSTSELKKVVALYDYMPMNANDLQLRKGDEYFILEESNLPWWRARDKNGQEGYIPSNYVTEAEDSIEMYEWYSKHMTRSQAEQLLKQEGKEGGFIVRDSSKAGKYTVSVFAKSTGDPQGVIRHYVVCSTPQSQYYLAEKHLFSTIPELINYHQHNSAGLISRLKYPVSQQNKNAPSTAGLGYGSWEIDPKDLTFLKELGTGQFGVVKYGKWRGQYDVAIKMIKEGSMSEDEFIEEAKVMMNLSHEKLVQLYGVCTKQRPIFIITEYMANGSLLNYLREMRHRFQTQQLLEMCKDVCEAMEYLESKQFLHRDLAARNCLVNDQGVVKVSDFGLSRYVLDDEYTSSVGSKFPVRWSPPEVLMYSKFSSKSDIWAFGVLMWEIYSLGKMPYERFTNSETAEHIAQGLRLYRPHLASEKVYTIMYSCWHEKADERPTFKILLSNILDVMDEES

Structure (SMILES) | sensitivity of degradation to the C481S mutation
Nc1ncnc2c1c(-c1ccc(Oc3ccccc3)cc1)nn2C1CCCN(C(=O)C=CCOCCOCCOCCOCCOCCOc2cccc3c2C(=O)N(C2CCC(=O)NC2=O)C3=O)C1 (centres unmarked) [IR-1] | low sensitivity to the mutation
CC(C)(C=C(C#N)C(=O)N1CCCC(n2nc(-c3ccc(Oc4ccccc4)cc3)c3c(N)ncnc32)C1)CCCOCCOCCOCCOCCOc1cccc2c1C(=O)N(C1CCC(=O)NC1=O)C2=O (centres unmarked) [RC-3] | severely impaired by the mutation
N#CC(=CCCCCOCCOCCOCCOCCOc1cccc2c1C(=O)N(C1CCC(=O)NC1=O)C2=O)C(=O)N1CCCC(n2nc(-c3ccc(Oc4ccccc4)cc3)c3c(N)ncnc32)C1 (centres unmarked) [RC-2] | low sensitivity to the mutation
Nc1ncnc2c1c(-c1ccc(Oc3ccccc3)cc1)nn2C1CCCN(C(=O)CCCCCCOCCOCCOCCOCCOc2cccc3c2C(=O)N(C2CCC(=O)NC2=O)C3=O)C1 (centres unmarked) [NC-1] | only mildly affected by the mutation
Nc1ncnc2c1c(-c1ccc(Oc3ccccc3)cc1)nn2C1CCCN(C(=O)C=CCCCCOCCOCCOCCOCCOc2cccc3c2C(=O)N(C2CCC(=O)NC2=O)C3=O)C1 (centres unmarked) [IR-2] | low sensitivity to the mutation
